This note sets out measurements from patent US11026972B2, “Methods for generating macrophages with enhanced cancer phagocytosis” (Georgia State University Research Foundation, Inc., priority 2016, dated 2021).

The test system of this data set is splenic macrophages, PEMs and BMDMs. Kind of data set: Ex vivo macrophage phagocytosis toward RBCs and other self-cells after activation. Type of data set: cell-based, mouse. As to conditions: for conversion to potent phagocytes toward self: PEMs and BMDMs from WT and mutant mice; for phagocytosis toward CD47^− RBCs of culture-retarded WT spleen macrophages: after 2 days of culturing; for phagocytosis toward RBCs: splenic macrophages from SIRPα^−/− or CD47^−/− mice. Summed up:
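Mouse splenic or peritoneal macrophages (2 h adherent selection) or BMDMs (M-CSF ~10 ng/ml, 5-6 days) were co-incubated 30 min at 37 °C with CFSE-labelled RBCs (1:5-10) or other cells (1:1-2). Uptake was scored by fluorescence microscopy and/or FACS with anti-F4/80 or anti-CD11b macrophage labelling.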

Consider lipopolysaccharide [LPS], for which the “conversion to potent phagocytes toward self” value was “converted all PEMs and BMDMs”; the “phagocytosis toward CD47^− RBCs of culture-retarded WT spleen macrophages” value was “dramatically rekindled”; the “phagocytosis toward RBCs” value is listed as “rapidly induced their phagocytosis toward RBCs”. Moreover, the “phagocytosis of other cell types” value (activated macrophages, CD47-SIRPα-controllable manner) was “capable of phagocytizing murine splenocytes, B16 melanoma cells, and EL4 lymphoblasts”.

B1: IL-17: recombinant murine cytokine interleukin IL-17 (also known as IL-17A), PeproTech (protein, UniProt Q62386 26-158, looked up)
Interleukin-17A: AAIIPQSSACPNTEAKDFLQNVKVNLKVFNSLGAKVSSRRPSDYLNRSTSPWTLHRNEDPDRYPSVIWEAQCRHQRCVNAEGKLDHHMNSVLIQQEILVLKREPESCPFTFRVEKMLVGVGCTCVASIVRQAA
For B1, the “conversion to potent phagocytes toward self” value was “converted all PEMs and BMDMs”; the “phagocytosis toward CD47^− RBCs of culture-retarded WT spleen macrophages” value is given as “dramatically rekindled”; the “phagocytosis toward RBCs” value was “rapidly induced their phagocytosis toward RBCs”.
